Values quoted from earlier work as cited in patent publication US5945105A, “Peptides of the antigen Sm-D and their use, in particular for the diagnostics of systemic lupus erythematosus (SLE)” (Imtec Immundiagnostika GmbH, priority 1995, dated 1999).

System: anti-SmD antibody-positive sera / SLE sera
Details: cited from earlier work; for anti-SmD antibody-positive sera that reacted with the peptide: 18 anti-SmD antibody-positive sera (immuno blotting); for positive reactions in the ELISA, SLE sera: 165 SLE sera

Substance	anti-SmD antibody-positive sera that reacted with the peptide	positive reactions in the ELISA, SLE sera
1-20: first region of the SmD protein, amino acids 1 through 20 (Barakat et al.) (MKLVRFLMKLSHETVTIELK; UniProt P62314 1-20, looked up, fragment) [Peptide 1-20]	67%	59%
44-67: second region of the SmD protein, amino acids 44 through 67 (Barakat et al.) (KMTLKNREPVQLETLSIRGNNIRY; UniProt P62314 44-67, looked up, fragment) [Peptide 44-67]	89%	37%
97-119: third region of the SmD protein, amino acids 97 through 119 (Barakat et al.) (GRGRGRGRGRGRGRGRGRGGPRR; UniProt P62314 97-119, looked up, fragment) [Peptide 97-119]	33%	1%
